Where a name gives a salt, the structure may show the parent alone. Read-outs that look alike come from different tables or passages of the source.
Tests used:
[1] = test system: H69 noncancerous cholangiocytes; assay: Annexin-V-Cy3/CFDA flow cytometry (apoptotic and viable cells); type: cell-based; details: for inhibition of viable cells (CF fluorescence): H69, 2 h and 24 h, maximum
Description: Apoptosis extent was evaluated by Annexin-V staining (Annexin V Apoptosis detection kit, Santa Cruz Biotechnology, DBA, Milan, Italy), which is known to specifically binds phosphatidylserine, a […] which is normally embedded in the inner leaflet of plasma membrane and externalized during apoptosis, as a result of the membrane changes. Therefore, apoptotic cells can be directly detected through their staining with the fluorochrome-conjugated Annexin V. The analysis was performed by both fluorescence microscopy and flow cytometry in order to both visualize the event and to achieve a quick and accurate quantification of apoptotic cells.
For flow cytometry analysis, the cells (1 × 10^6 cells) were grown in 6-well plates, treated with β-caryophyllene (50 µM) and doxorubicin (20 µM), alone and in combination for the required time exposure, then collected by trypsinization and resuspended in PBS in the presence of the fluorochrome Annexin-V-Cy3 (4 μg/mL in cell suspension). In order to detect viable cells, the nonfluorescent probe carboxyfluorescein diacetate (CFDA; 2 μg/mL in cell suspension), hydrolyzed in living cells by esterases to its fluorescent carboxyfluorescein metabolite (CF), was included too. For each sample, the mean fluorescence of Annexin-V-Cy3 (excitation/emission at 543/570 nm, respectively) and CF (excitation/emission at 492/514 nm, respectively) in 50,000 cells was measured using a BD Accuri^TM C6 flow cytometer, FL-2 and FL-1 channels respectively (BD Biosciences, Milan, Italy). Although standard flow cytometry apoptosis assays use Annexin V-FITC, we chosen the conjugate with Cy3 in order to avoid the overlapping in the excitation wavelength of annexin V-FITC and CF, which could interfere with the analysis. Cells undergoing apoptosis were also sorted by their typical forward- and side scatter (FSC-SSC) pattern, i.e., increased SSC and decreased FSC, respect to the viable cells. Multiparameter analysis and gating of forward and side scatter as well as fluorescence detection were performed using a BD Accuri^TM C6 Software version 1.0.264.21 (BD Biosciences, Milan, Italy).

[2] = test system: Mz-ChA-1 cholangiocarcinoma cells
Description: To perform the assay, the cells were grown for 24 h into 96-well microplates (2 × 10^4 cells/well), then treated with the test substances and incubated according to the applied protocol schedule [26]. At the end of incubation, the cytotoxicity was measured by the 3-[4,5-dimethylthiazol-2-yl] -2,5-diphenyl tetrazolium bromide (MTT) assay, using an Epoch Microplate Spectrophotometer (BioTek, AHSI, Milan Italy). At least three biologic replicates, in which each concentration was tested in triplicate, were made. Comparing the number of viable cells in each treatment respect to the vehicle control allows to measure a cell viability reduction. The effect of the treatment was considered as cytotoxic when at least a 30% lowering of cell viability occurred [59].
In the single long-term schedule, confluence cells were exposed to the test substances for 24 h and 72 h (Figure S1), then the cytotoxicity was measured by the MTT assay. Under the metronomic treatment, the cells were subjected to a short and/or repeated exposure of 2 h to the test substances (Figure S2), as follow: 1) single treatment, the cells were treated for 2 h, then washed and incubated for 72 h; 2) two-repeated treatments, the cells were exposed to the test substances for 2 h, then washed and incubated for functional recovery for further 2 h. After recovering, the cells were further treated with the test substances for 2 h, washed and incubated for 72 h. Finally, the cytotoxicity was measured by the MTT assay as described above.
The type of interaction between β-caryophyllene and doxorubicin, i.e., synergy, additivity or antagonism, was evaluated by measuring three parameters: reversal ratio value (RR), combination index (CI) and isobolographic analysis (IB) [24].
RR represents the cytotoxicity enhancement ratio and allows to quantify the efficacy increase of a drug (A) in the presence of a chemosensitizing agent (B), by relating the IC50 of A alone (CA) and that of IC50 of its combination with B (CA+B).
CI gives a quantitative measure of the interaction and is calculated as follow: (CA,X/ICX,A) + (CB, X/ICX,B), in which CA,X and CB,X are the concentrations of A and B at the IC50 value of their combination, whereas ICX,A and ICX,B are the IC50 values of the substances alone. When the CI value was equal to, less or higher than 1, the interaction between test substances was evaluated as additivity, synergism and antagonism, respectively.
The isobolographic analysis, displaying the extent of the interaction between drug A and the potential chemosensitizer B, was obtained by a two-coordinate plot, wherein the IC50 concentrations of A and B were plotted on the x and y axes, corresponding to (CA, 0) and (C0, B), respectively. The substance concentrations used in the combination (CA+B) were placed in the same plot. A nonlinear regression analysis was carried out by GraphPad Prism™ 6.00 software, in order to connect the IC50 value of each drug alone and that of the combination, whereas the line connecting CA and CB represented an additive interaction. A synergism between A and B occurred when CA+B were located below the line, while the interaction was antagonistic when the values were above the line [60].

[3] = test system: ROS in H69 noncancerous cholangiocytes; assay: Intracellular ROS determination (DCFH-DA); type: cell-based; details: H69, 24 h, β-caryophyllene 50 µM, doxorubicin 20 µM
Description: (§1) To perform the assay, the cells, seeded in 6-well plates (1 × 10^6 cells/well), were treated with the tested substances (β-caryophyllene, 50 µM; doxorubicin, 20 µM) for the required time exposure, then the ROS levels were measured in the pellets by the 2,7-dichlorofluorescein diacetate assay (DCFH-DA), as previously reported. […] In each experiment, a vehicle control, corresponding to a basal ROS level, were included too. For all the treatments, the mean DCF fluorescence of 50,000 cells was determined by a BD Accuri^TM C6 Software version 1.0.264.21 (BD Biosciences, Milan, Italy).

[4] = test system: phospho(Tyr705)-STAT3 in H69 cholangiocytes; assay: Western blotting of phospho(Tyr705)-STAT3; type: cell-based; details: for enhancement of basal phospho(Tyr705)-STAT3 expression: doxorubicin 20 µM
Description: To perform the analysis, the cells were seeded in 6-well plates, then subjected to the treatment with β-caryophyllene (50 µM) and doxorubicin (20 µM), alone and in combination, for the required time exposure, then harvested by centrifugation and washed in PBS. A lysis buffer, containing SDS (2% w/w), Tris-hydrochloride (20 mM; pH 7.4), urea (2 M), glycerol (10% w/w), sodium orthovanadate (2 mM), DTT (10 mM) and a protease inhibitors cocktail (1:100 dilution) was used to achieve the cell protein separation. The separated proteins were resolved by SDS-PAGE 10% TGX FastCast™ Acrylamide gel (BioRad, Segrate, Italy) and transferred on PVDF membranes (BioRad, Segrate, Italy) by using a Trans-Blot® Turbo™ Transfer System (BioRad, Segrate, Italy). The membranes were blocked with a 0.2% w/v I-block (Thermo Fisher Scientific, Rodano, Italy) in Tris-buffered saline containing 0.05% Tween-20 (TBS-T), then stained with the desired primary antibodies. […] After rinsing three times in TBS-T to remove unbound primary antibody, the membranes were incubated for an additional hour with the appropriate horseradish peroxidase- or alkaline phosphatase-conjugated secondary antibody (Jackson ImmunoResearch, Pero, Italy). […] Each experiment was performed at least in three replicates.

[5] = test system: ROS in Mz-ChA-1 cholangiocarcinoma cells; assay: Intracellular ROS determination (DCFH-DA); type: cell-based, human; details: β-caryophyllene 50 µM, doxorubicin 20 µM
Description: as §1

With `C=C1CC/C=C(\C)CC[C@@H]2[C@@H]1CC2(C)C` [β-Caryophyllene, β-caryophyllene] the “inhibition of viable cells (CF fluorescence)” value [1] was “about 1.2 fold”, the “lowering of basal apoptosis (annexin-V-Cy3)” value ([1]; H69, both time exposures, β-caryophyllene 50 µM) was 1.2 fold and the “fold more toxic after 72 h with respect to the other schedules (IC50 comparison)” value ([2]; Mz-ChA-1) was 1.4- to 2 fold. For the same compound, the “reduction of cell viability” value ([2]; Mz-ChA-1, 50 μM) was “lower than 20%”, the “inhibition of cell viability vs. control” value ([2]; Mz-ChA-1, concentrations higher than 50 μM, 24 h and 72 h) was “about 20%” and the “nontoxic up to (concentration)” value ([2]; Mz-ChA-1, metronomic schedule) was “up to 125 μM”. The “enhancement in ROS amount compared the control” value [3] was 1.3 fold, the “effect on phospho(Tyr705)-STAT3 expression” value ([4]; H69, β-caryophyllene 50 µM alone) was “did not affected the protein expression” and the “increase of ROS levels with respect to the control” value (“increase of ROS levels” for short) ([5]; Mz-ChA-1, 2 h) was “about 1.6 fold”. The “increase of ROS levels” value ([5]; Mz-ChA-1, 24 h) was ~1.2 fold.
`COc1cccc2c1C(=O)c1c(O)c3c(c(O)c1C2=O)C[C@@](O)(C(=O)CO)C[C@@H]3O[C@H]1C[C@H](N)[C@H](O)[C@H](C)O1` [Doxorubicin, doxorubicin hydrochloride] was tested, and the “inhibition of viable cells (CF fluorescence)” value [1] was ≤ 1.4 fold, the “increase of apoptotic rate” value ([1]; H69, 24 h, doxorubicin 20 µM) was ~1.5 fold and the “cytotoxicity increase produced by the double repeated exposure” value [2] was 10%. For the same compound, the “IC50 lowering, double repeated 2 h metronomic vs 24 h protocol” value ([2]; Mz-ChA-1) was ~2.4 fold, the “IC50 lowering, single 2 h metronomic vs 24 h protocol” value ([2]; Mz-ChA-1) was “about 1.4 fold” and the “IC50 reduction, double short exposure vs single 2 h treatment” value ([2]; Mz-ChA-1) was 1.7 fold. The “anticancer power under metronomic conditions lower than after 72 h” value ([2]; Mz-ChA-1) was 3- to 5 fold, the “potency increase, 72 h with respect to 24 h (IC50 comparison)” value ([2]; Mz-ChA-1) was “at least 7 fold” and the “inhibition of cell viability” value ([2]; Mz-ChA-1, 1 µM, 72 h) was “about 20%”. For the same compound, the “inhibition of cell viability” value ([2]; Mz-ChA-1, 10 μM, 2 h exposure protocol) was ≥ 35%, the “inhibition of cell viability” value ([2]; Mz-ChA-1, 10 µM, 24 h) was “about 20%” and the “inhibition of cell viability” value ([2]; Mz-ChA-1, 10 µM, 72 h) was “about 80%”. The “maximum inhibition of cell viability” value ([2]; Mz-ChA-1, 100 μM, both metronomic schedules) was 80%, the “maximum inhibition of cell viability” value ([2]; Mz-ChA-1, 200 µM, 24 h) was “about 80%” and the “cell viability reduction vs. control” value ([2]; Mz-ChA-1, concentrations lower than 10 μM, 2 h exposure protocol) was < 20%. For the same compound, the “enhancement in ROS amount compared the control” value [3] was “at least 3 fold”, the “enhancement of basal phospho(Tyr705)-STAT3 expression” value ([4]; H69, 2 h) was ~6 fold and the “enhancement of basal phospho(Tyr705)-STAT3 expression” value ([4]; H69, 24 h) was ~10 fold. For the same compound, the “increase of ROS levels” value ([5]; Mz-ChA-1, 2 h) was ~7 fold and the “increase of ROS levels” value ([5]; Mz-ChA-1, 24 h) was ~4 fold.

Source: PMC7226839, “Modulation of STAT3 Signaling, Cell Redox Defenses and Cell Cycle Checkpoints by β-Caryophyllene in Cholangiocarcinoma Cells: Possible Mechanisms Accounting for Doxorubicin Chemosensitization and Chemoprevention” (Cells, 2020)
